Results on 27 compounds are retold here after patent publication US20240228504A1, “SUBSTITUTED TRICYCLIC AMIDES, ANALOGUES THEREOF, AND METHODS USING SAME” (Arbutus Biopharma Corporation, priority 2020, published 2024).

Each structure is given as a SMILES string.

For the first test, the system named is HBV rcDNA in HepDE19 cells. Kind of test: HepDE19 assay with bDNA quantitation of HBV rcDNA. The test is classed as cell-based, hepatitis B virus. The note with it: HepDE19 assay, inhibition of rcDNA formation, bDNA quantitation; read-out: DE-19bDNA EC50.
For the compound `CC(=O)N1Cc2[nH]c(=O)c3cc(F)ccc3c2C(N(C)C(=O)c2cc3ccccc3[nH]2)C1` (single isomer, unassigned) [Compound 69, N-(3-Acetyl-8-fluoro-6-oxo-1,2,3,4,5,6-hexahydrobenzo[c][1,7]naphthyridin-1-yl)-N-methyl-1H-indole-2-carboxamide], the 50% effective concentration (EC50) worked out at 21000 nM.

Regarding `CN(C(=O)c1cc2ccccc2[nH]1)C1CNCc2[nH]c(=O)c3cc(F)ccc3c21` (single isomer, unassigned) [Compound 77, N-(8-Fluoro-6-oxo-1,2,3,4,5,6-hexahydrobenzo[c][1,7]naphthyridin-1-yl)-N-methyl-1H-indole-2-carboxamide], the EC50 is 150 nM.

Consider `CN(C(=O)c1cc2ccccc2[nH]1)C1CNCc2[nH]c(=O)c3cc(F)ccc3c21` (single isomer, unassigned) [Compound 78, N-(8-Fluoro-6-oxo-1,2,3,4,5,6-hexahydrobenzo[c][1,7]naphthyridin-1-yl)-N-methyl-1H-indole-2-carboxamide], for which the EC50 worked out at 8100 nM.

Regarding `CN(C(=O)c1cc2ccccc2[nH]1)C1CN(CCO)Cc2[nH]c(=O)c3cc(F)ccc3c21` (single isomer, unassigned) [Compound 80, N-(8-Fluoro-3-(2-hydroxyethyl)-6-oxo-1,2,3,4,5,6-hexahydrobenzo[c][1,7]naphthyridin-1-yl)-N-methyl-1H-indole-2-carboxamide], the EC50 was determined as 6300 nM.

Take `CC(=O)N1Cc2[nH]c(=O)c3cc(F)c(F)cc3c2C(N(C)C(=O)c2cc3ccccc3[nH]2)C1` (single isomer, unassigned) [Compound 81, N-(3-Acetyl-8,9-difluoro-6-oxo-1,2,3,4,5,6-hexahydrobenzo[c][1,7]naphthyridin-1-yl)-N-methyl-1H-indole-2-carboxamide]: the concentration for a half-maximal effect (EC50) worked out at 14000 nM.

As for `CC(=O)N1Cc2[nH]c(=O)c3cc(F)c(F)cc3c2C(N(C)C(=O)c2cc3ccccc3[nH]2)C1` (single isomer, unassigned) [Compound 82, N-(3-Acetyl-8,9-difluoro-6-oxo-1,2,3,4,5,6-hexahydrobenzo[c][1,7]naphthyridin-1-yl)-N-methyl-1H-indole-2-carboxamide], the EC50 was determined as 3500 nM.

As for `CN(C(=O)c1cc2ccccc2[nH]1)C1CN(CCO)Cc2[nH]c(=O)c3cc(F)c(F)cc3c21` (single isomer, unassigned) [Compound 89, N-(8,9-Difluoro-3-(2-hydroxyethyl)-6-oxo-1,2,3,4,5,6-hexahydrobenzo[c][1,7]naphthyridin-1-yl)-N-methyl-1H-indole-2-carboxamide], the EC50 came to 7900 nM.

`CN(C(=O)c1cc2ccccc2[nH]1)C1CN(CCO)Cc2[nH]c(=O)c3cc(F)c(F)cc3c21` (single isomer, unassigned) [Compound 90, N-(8,9-Difluoro-3-(2-hydroxyethyl)-6-oxo-1,2,3,4,5,6-hexahydrobenzo[c][1,7]naphthyridin-1-yl)-N-methyl-1H-indole-2-carboxamide]: the EC50 is 500 nM.

With `CN(C(=O)c1cc2cc(F)ccc2[nH]1)C1CNCc2[nH]c(=O)c3cc(F)c(F)cc3c21` (single isomer, unassigned) [Compound 101, N-(8,9-Difluoro-6-oxo-1,2,3,4,5,6-hexahydrobenzo[c][1,7]naphthyridin-1-yl)-5-fluoro-N-methyl-1H-indole-2-carboxamide], the 50% effective concentration (EC50) amounted to 10 nM.

Turning to `CN(C(=O)c1cc2cc(F)ccc2[nH]1)C1CNCc2[nH]c(=O)c3cc(F)c(F)cc3c21` (single isomer, unassigned) [Compound 102, N-(8,9-Difluoro-6-oxo-1,2,3,4,5,6-hexahydrobenzo[c][1,7]naphthyridin-1-yl)-5-fluoro-N-methyl-1H-indole-2-carboxamide], the EC50 stood at 1800 nM.

In the case of `CN(C(=O)c1cc2c(F)cccn2c1)C1CSCc2[nH]c(=O)c3cc(F)c(F)cc3c21` (single isomer, unassigned) [Compound 103, N-(8,9-Difluoro-6-oxo-1,4,5,6-tetrahydro-2H-thiopyrano[3,4-c]isoquinolin-1-yl)-8-fluoro-N-methylindolizine-2-carboxamide], the half-maximal effective concentration (EC50) was 2500 nM.

As to `CN(C(=O)c1cc2c(F)cccn2c1)C1CSCc2[nH]c(=O)c3cc(F)c(F)cc3c21` (single isomer, unassigned) [Compound 104, N-(8,9-Difluoro-6-oxo-1,4,5,6-tetrahydro-2H-thiopyrano[3,4-c]isoquinolin-1-yl)-8-fluoro-N-methylindolizine-2-carboxamide], the concentration giving a half-maximal response (EC50) amounted to 10 nM.

Turning to `CN(C(=O)c1cc2c(F)cccc2[nH]1)C1CNCc2[nH]c(=O)c3cc(F)c(F)cc3c21` (single isomer, unassigned) [Compound 105, N-(8,9-Difluoro-6-oxo-1,2,3,4,5,6-hexahydrobenzo[c][1,7]naphthyridin-1-yl)-4-fluoro-N-methyl-1H-indole-2-carboxamide], the EC50 is 10 nM.

For the compound `CN(C(=O)c1cc2c(F)cccc2[nH]1)C1CNCc2[nH]c(=O)c3cc(F)c(F)cc3c21` (single isomer, unassigned) [Compound 106, N-(8,9-Difluoro-6-oxo-1,2,3,4,5,6-hexahydrobenzo[c][1,7]naphthyridin-1-yl)-4-fluoro-N-methyl-1H-indole-2-carboxamide], the concentration giving a half-maximal response (EC50) is 100 nM.

As for `CN(C(=O)c1cc2ccc(F)cc2[nH]1)C1CNCc2[nH]c(=O)c3cc(F)c(F)cc3c21` (single isomer, unassigned) [Compound 107, N-(8,9-Difluoro-6-oxo-1,2,3,4,5,6-hexahydrobenzo[c][1,7]naphthyridin-1-yl)-6-fluoro-N-methyl-1H-indole-2-carboxamide], the EC50 turned out to be 20 nM.

As for `CN(C(=O)c1cc2ccc(F)cc2[nH]1)C1CNCc2[nH]c(=O)c3cc(F)c(F)cc3c21` (single isomer, unassigned) [Compound 108, N-(8,9-Difluoro-6-oxo-1,2,3,4,5,6-hexahydrobenzo[c][1,7]naphthyridin-1-yl)-6-fluoro-N-methyl-1H-indole-2-carboxamide], the EC50 stood at 1600 nM.

For `CN(C(=O)c1cc2cccc(F)c2[nH]1)C1CNCc2[nH]c(=O)c3cc(F)c(F)cc3c21` (single isomer, unassigned) [Compound 113, N-(8,9-Difluoro-6-oxo-1,2,3,4,5,6-hexahydrobenzo[c][1,7]naphthyridin-1-yl)-7-fluoro-N-methyl-1H-indole-2-carboxamide], the EC50 turned out to be 430 nM.

With `CN(C(=O)c1cc2cccc(F)c2[nH]1)C1CNCc2[nH]c(=O)c3cc(F)c(F)cc3c21` (single isomer, unassigned) [Compound 114, N-(8,9-Difluoro-6-oxo-1,2,3,4,5,6-hexahydrobenzo[c][1,7]naphthyridin-1-yl)-7-fluoro-N-methyl-1H-indole-2-carboxamide], the EC50 is 20 nM.

On to `CN(C(=O)c1cc2cc(F)c(F)cc2[nH]1)C1CNCc2[nH]c(=O)c3cc(F)c(F)cc3c21` (single isomer, unassigned) [Compound 115, N-(8,9-Difluoro-6-oxo-1,2,3,4,5,6-hexahydrobenzo[c][1,7]naphthyridin-1-yl)-5,6-difluoro-N-methyl-1H-indole-2-carboxamide], for which the half-maximal effective concentration (EC50) was found to be 20 nM.

Consider `CN(C(=O)c1cc2cc(F)c(F)cc2[nH]1)C1CNCc2[nH]c(=O)c3cc(F)c(F)cc3c21` (single isomer, unassigned) [Compound 116, N-(8,9-Difluoro-6-oxo-1,2,3,4,5,6-hexahydrobenzo[c][1,7]naphthyridin-1-yl)-5,6-difluoro-N-methyl-1H-indole-2-carboxamide], for which the EC50 was determined as 1300 nM.

In the case of `CN(C(=O)c1cc2c(F)cc(F)cc2[nH]1)C1CNCc2[nH]c(=O)c3cc(F)c(F)cc3c21` (single isomer, unassigned) [Compound 117, N-(8,9-Difluoro-6-oxo-1,2,3,4,5,6-hexahydrobenzo[c][1,7]naphthyridin-1-yl)-4,6-difluoro-N-methyl-1H-indole-2-carboxamide], the EC50 is 20 nM.

Consider `CN(C(=O)c1cc2c(F)cc(F)cc2[nH]1)C1CNCc2[nH]c(=O)c3cc(F)c(F)cc3c21` (single isomer, unassigned) [Compound 118, N-(8,9-Difluoro-6-oxo-1,2,3,4,5,6-hexahydrobenzo[c][1,7]naphthyridin-1-yl)-4,6-difluoro-N-methyl-1H-indole-2-carboxamide], for which the EC50 came to 1200 nM.

In the case of `CN(C(=O)c1cc2c(F)c(F)ccc2[nH]1)C1CNCc2[nH]c(=O)c3cc(F)c(F)cc3c21` (single isomer, unassigned) [Compound 119, N-(8,9-Difluoro-6-oxo-1,2,3,4,5,6-hexahydrobenzo[c][1,7]naphthyridin-1-yl)-4,5-difluoro-N-methyl-1H-indole-2-carboxamide], the EC50 was found to be 10 nM.

Regarding `CN(C(=O)c1cc2c(F)c(F)ccc2[nH]1)C1CNCc2[nH]c(=O)c3cc(F)c(F)cc3c21` (single isomer, unassigned) [Compound 120, N-(8,9-Difluoro-6-oxo-1,2,3,4,5,6-hexahydrobenzo[c][1,7]naphthyridin-1-yl)-4,5-difluoro-N-methyl-1H-indole-2-carboxamide], the EC50 was found to be 850 nM.

As for `CN(C(=O)c1cc2ccc(Cl)cn2c1)C1CNCc2[nH]c(=O)c3cc(F)c(F)cc3c21` (single isomer, unassigned) [Compound 121, 6-Chloro-N-(8,9-difluoro-6-oxo-1,2,3,4,5,6-hexahydrobenzo[c][1,7]naphthyridin-1-yl)-N-methylindolizine-2-carboxamide], the EC50 was 30 nM.

Turning to `CN(C(=O)c1cc2ccc(Cl)cn2c1)C1CNCc2[nH]c(=O)c3cc(F)c(F)cc3c21` (single isomer, unassigned) [Compound 122, 6-Chloro-N-(8,9-difluoro-6-oxo-1,2,3,4,5,6-hexahydrobenzo[c][1,7]naphthyridin-1-yl)-N-methylindolizine-2-carboxamide], the EC50 stood at 1200 nM.

The test is the same for the next values; noted with them: Hepatitis B virus, HepDE19, HepDE19 assay, inhibition of rcDNA formation, bDNA quantitation; read-out: DE-19bDNA EC50.
Consider `CN(C(=O)c1cc2ccccc2[nH]1)C1CN(CCO)Cc2[nH]c(=O)c3cc(F)ccc3c21` (single isomer, unassigned) [Compound 79, N-(8-Fluoro-3-(2-hydroxyethyl)-6-oxo-1,2,3,4,5,6-hexahydrobenzo[c][1,7]naphthyridin-1-yl)-N-methyl-1H-indole-2-carboxamide], for which the EC50 was 10000 nM.

As usually defined, the EC50 is the concentration at which the effect is half-maximal.
